Data set [1] deals with Mycobacterium smegmatis ATCC 607. Nature of the data set: Antimicrobial activity, broth double microdilution MIC. The conditions noted are these: Mycolicibacterium smegmatis. Format: cell-based. (In general: Dilution methods test growth across graded concentrations, often in twofold steps.)
Data set [2] has as its target urease (Canavalia ensiformis, UniProt P07374). Nature of the data set: Urease inhibitory activity (Van Slyke and Archibald).
In data set [3] the test system is Candida albicans ATCC 60193. In words: Antifungal activity, broth double microdilution MIC. It is filed as cell-based.
Data set [4] concerns S. cerevisiae RSKK 251. The description is as above. It is filed as cell-based. The note with it: Saccharomyces cerevisiae.
Data set [5] relates to Bacillus cereus 702 Roma. Nature of the data set: Antimicrobial activity, broth double microdilution MIC. It is filed as cell-based. The note with it: pH 7.3, read-out: minimal inhibition concentration, Bc.
Data set [6] has as its system all the microorganisms. Nature of the data set: Antimicrobial activity in vitro, whole panel. Format: cell-based. The note with it: result in words.
Data set [7] deals with Enterococcus faecalis ATCC 29212. Nature of the data set: Antimicrobial activity, broth double microdilution MIC. It is filed as cell-based. The conditions noted are these: ATCC29212, Mueller–Hinton broth pH 7.3, 18–24 h at 35 °C, – = no activity, read-out: minimal inhibition concentration, Ef.
Data set [8] has as its system Pseudomonas aeruginosa ATCC 43288. The description is as above. The conditions noted are these: ATCC43288, Mueller–Hinton broth pH 7.3, 18–24 h at 35 °C, – = no activity, read-out: minimal inhibition concentration, Pa. Format: cell-based.
In data set [9] the test system is Yersinia pseudotuberculosis ATCC 911. Nature of the data set: microbe, parasite or virus in culture. It is filed as cell-based. The note with it: ATCC911, pH 7.3, read-out: minimal inhibition concentration, Yp.
In data set [10] the test system is Escherichia coli ATCC 25922. Nature of the data set: Antimicrobial activity, broth double microdilution MIC. Format: cell-based. The conditions noted are these: ATCC25922, pH 7.3, read-out: minimal inhibition concentration, Ec.
Data set [11] relates to Staphylococcus aureus ATCC 25923. The description is as above. Format: cell-based. The conditions noted are these: ATCC25923, Mueller–Hinton broth pH 7.3, 18–24 h at 35 °C, – = no activity, read-out: minimal inhibition concentration, Sa.
The mark [12] stands for this setting: ATCC607, read-out: minimal inhibition concentration, Ms.
Setting [13] is: Candida albicans, ATCC60193, pH 7, read-out: minimal inhibition concentration, Ca.
The mark [14] stands for this setting: RSKK251, pH 7, read-out: minimal inhibition concentration, Sc.

In brackets after ≈: the same amount, converted by molar mass. Like-named read-outs stand apart in the source and are kept apart here.

The term melting point denotes the temperature of the solid-liquid transition. The IC50 is the concentration needed to halve the response being measured.

urease, sequence (P07374 whole entry, looked up): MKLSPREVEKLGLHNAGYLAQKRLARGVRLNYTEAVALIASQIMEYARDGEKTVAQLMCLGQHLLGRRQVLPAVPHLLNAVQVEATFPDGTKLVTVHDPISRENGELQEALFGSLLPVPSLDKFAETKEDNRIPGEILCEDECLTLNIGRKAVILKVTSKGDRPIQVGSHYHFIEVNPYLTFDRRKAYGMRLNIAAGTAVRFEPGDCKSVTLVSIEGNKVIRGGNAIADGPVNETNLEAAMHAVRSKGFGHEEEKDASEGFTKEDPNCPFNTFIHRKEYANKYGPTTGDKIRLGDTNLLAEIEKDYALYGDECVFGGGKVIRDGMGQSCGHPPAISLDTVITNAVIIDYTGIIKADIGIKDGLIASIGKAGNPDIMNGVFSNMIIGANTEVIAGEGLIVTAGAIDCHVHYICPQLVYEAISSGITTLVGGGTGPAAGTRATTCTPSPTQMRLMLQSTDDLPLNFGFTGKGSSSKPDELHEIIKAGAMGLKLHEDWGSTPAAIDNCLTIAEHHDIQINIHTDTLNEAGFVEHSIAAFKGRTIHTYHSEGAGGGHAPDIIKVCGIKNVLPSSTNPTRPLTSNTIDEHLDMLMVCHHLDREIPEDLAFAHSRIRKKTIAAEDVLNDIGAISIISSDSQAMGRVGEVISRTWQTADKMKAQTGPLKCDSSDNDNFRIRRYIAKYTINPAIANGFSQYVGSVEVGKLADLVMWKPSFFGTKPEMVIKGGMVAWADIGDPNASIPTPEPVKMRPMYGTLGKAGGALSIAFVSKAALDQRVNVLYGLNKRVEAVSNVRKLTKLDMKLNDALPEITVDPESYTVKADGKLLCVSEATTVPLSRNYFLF

For the molecule `CCOC(=O)CNc1ccc(N2CCOCC2)nc1` [Compound 3, Ethyl N-(6-morpholin-4-ylpyridin-3-yl)glycinate], the melting point lay in the range of 83 to 84 °C. The MIC in [1] (setting [12]) worked out at 125 µg/mL (≈ 471 µM). For the same molecule, in data set [2], the IC50 was found to be 13.2 ± 2.25 µM. The MIC in data set [3] (setting [13]) is 1000 µg/mL (≈ 3770 µM). In addition, the MIC in data set [4] (setting [14]) amounted to 1000 µg/mL (≈ 3770 µM).

For `O=C(CNc1ccc(N2CCOCC2)nc1)N/N=c1\sc(-c2ccc(Cl)cc2)cn1-c1ccccc1` [Compound 10], the melting point fell in the range of 168 to 169 °C. Further, in [2], 2.37 ± 0.19 µM corresponded to half-maximal inhibition (IC50). The MIC in data set [3] (setting [13]) was 500 µg/mL (≈ 960 µM). In addition, the MIC in [4] (setting [14]) stood at 1000 µg/mL (≈ 1920 µM).

`Sc1nnc(CNc2ccc(N3CCOCC3)nc2)o1` [Compound 7, 5-{[(6-Morpholin-4-ylpyridin-3-yl)amino]methyl}-1,3,4-oxadiazole-2-thiol] registered a melting point of 221 to 222 °C. Moreover, the IC50 in data set [2] is 7.01 ± 0.68 µM. Further, in data set [3] (setting [13]), the MIC stood at 500 µg/mL (≈ 1700 µM). Also, the MIC in [4] (setting [14]) is 1000 µg/mL (≈ 3410 µM).

For `O=C(CNc1ccc(N2CCOCC2)nc1)NNC(=S)Nc1ccccc1` [Compound 9, 2-{[(6-Morpholin-4-ylpyridin-3-yl)amino]acetyl}-N-phenylhydrazinecarbothioamide], the melting point fell in the range of 171 to 172 °C. For the same molecule, the MIC in data set [1] (setting [12]) stood at 125 µg/mL (≈ 323 µM). 8.07 ± 1.25 µM corresponded to half-maximal inhibition in data set [2] (IC50). Besides, in data set [3] (setting [13]), the MIC stood at 1000 µg/mL (≈ 2590 µM). Also, the MIC in data set [4] (setting [14]) came out at 1000 µg/mL (≈ 2590 µM).

On to `O=C(CNc1ccc(N2CCOCC2)nc1)N/N=C/c1ccc(Br)cc1` [Compound 5, N-(4-Bromobenzylidene)-2-[6-(morpholin-4-yl)pyridin-3-ylamino]acetohydrazide], for which the melting point is 163 to 164 °C. Besides, the MIC in data set [1] (setting [12]) worked out at 31.3 µg/mL (≈ 74.8 µM). In data set [2], this molecule displayed an IC50 of 6.87 ± 0.06 µM. Further, the MIC in data set [3] (setting [13]) is 1000 µg/mL (≈ 2390 µM). Further, the MIC in [4] (setting [14]) was found to be 1000 µg/mL (≈ 2390 µM).

For the molecule `NNC(=O)CNc1ccc(N2CCOCC2)nc1` [Compound 4, 2-[6-(Morpholin-4-yl)pyridin-3-ylamino]acetohydrazide], the melting point lay in the range of 175 to 177 °C. The MIC in [1] (setting [12]) amounted to 125 µg/mL (≈ 497 µM). In addition, in data set [2], half-maximal inhibition (IC50) required 7.92 ± 1.43 µM. Besides, the MIC in data set [3] (setting [13]) was 500 µg/mL (≈ 1990 µM). In addition, the MIC in [4] (setting [14]) is 1000 µg/mL (≈ 3980 µM).

On to `OC(Cn1cncn1)(Cn1cncn1)c1ccc(F)cc1F` [Flu., Fluconazole, reference compound], for which the MIC was less than 8 µg/mL in [3] (ATCC60193, Candida albicans ATCC 60193, buffered Yeast Nitrogen Base pH 7.0, 18–24 h at 35 °C, read-out: minimal inhibition concentration, Ca) and less than 8 µg/mL in data set [4] (RSKK251, S. cerevisiae RSKK 251, buffered Yeast Nitrogen Base pH 7.0, 18–24 h at 35 °C, read-out: minimal inhibition concentration, Sc).

For the molecule `CN[C@@H]1[C@H](O[C@H]2[C@H](O[C@H]3[C@H](O)[C@@H](O)[C@H](N=C(N)N)[C@@H](O)[C@@H]3N=C(N)N)O[C@@H](C)[C@]2(O)C=O)O[C@@H](CO)[C@H](O)[C@H]1O` [Str., Streptomisin, reference compound], in [1] (ATCC607, Mycobacterium smegmatis ATCC 607, Brain Heart Infusion broth, 48–72 h at 35 °C, – = no activity, read-out: minimal inhibition concentration, Ms), the MIC came to 4 µg/mL (≈ 6.88 µM).

`O=C(CNc1ccc(N2CCOCC2)nc1)N/N=C/C=C/c1ccccc1` [Compound 6, 2-{[6-(Morpholin-4-yl)pyridin-3-yl]amino}-N-(3-phenylallylidene)acetohydrazide]: the melting point is 194 to 195 °C. Besides, 8.29 ± 2.3 µM corresponded to half-maximal inhibition in [2] (IC50). The MIC in data set [3] (setting [13]) is 500 µg/mL (≈ 1370 µM). The MIC in [4] (setting [14]) was 1000 µg/mL (≈ 2740 µM).

Consider `S=c1oc(CNc2ccc(N3CCOCC3)nc2)nn1CN1CCN(c2ccccc2)CC1` [Compound 8, 5-{[(6-Morpholin-4-ylpyridin-3-yl)amino]methyl}-3-[(4-phenylpiperazin-1-yl)methyl]-1,3,4-oxadiazole-2(3H)-thione], for which the melting point is 87 to 88 °C. For the same molecule, the MIC in [1] (setting [12]) stood at 125 µg/mL (≈ 267 µM). In addition, in [5], the MIC is 62.5 µg/mL (≈ 134 µM). The molecule also returned an IC50 in [2] of 4.99 ± 0.59 µM. Also, the MIC in data set [3] (setting [13]) was 1000 µg/mL (≈ 2140 µM). Also, in data set [6], the “antimicrobial activity against all the microorganisms” value is recorded as “active against all the microorganisms”. In data set [7], the MIC was 31.3 µg/mL (≈ 66.9 µM). For the same molecule, the MIC in [4] (setting [14]) amounted to 1000 µg/mL (≈ 2140 µM). For the same molecule, the MIC in [8] was found to be 62.5 µg/mL (≈ 134 µM). Further, the MIC in data set [9] amounted to 62.5 µg/mL (≈ 134 µM). Moreover, in data set [10], the MIC came out at 62.5 µg/mL (≈ 134 µM). Also, in data set [11], the MIC was 31.3 µg/mL (≈ 66.9 µM).

In turn, `Sc1nnc(CNc2ccc(N3CCOCC3)nc2)n1-c1ccccc1` [Compound 11] had a melting point of 165 to 166 °C.

The molecule `O=C(CNc1ccc(N2CCOCC2)nc1)N/N=C1\SCC(=O)N1c1ccccc1` [Compound 13, 2-[(6-Morpholin-4-ylpyridin-3-yl)amino]-N’-(4-oxo-3-phenyl-1,3-thiazolidin-2-ylidene)acetohydrazide] displayed a melting point of 201 to 202 °C. In data set [2], the IC50 was found to be 4.46 ± 0.22 µM. Moreover, in data set [3] (setting [13]), the MIC was found to be 500 µg/mL (≈ 1170 µM). In addition, in data set [4] (setting [14]), the MIC was found to be 1000 µg/mL (≈ 2340 µM).

On to `CC1(C)S[C@@H]2[C@H](NC(=O)[C@H](N)c3ccccc3)C(=O)N2[C@H]1C(=O)O` [Amp., Ampicillin, reference compound], for which the MIC was less than 1 µg/mL in data set [5]; 2 µg/mL (≈ 5.72 µM) in data set [7]; more than 128 µg/mL in [8]; 32 µg/mL (≈ 91.6 µM) in data set [9]; 8 µg/mL (≈ 22.9 µM) in data set [10]; 2 µg/mL (≈ 5.72 µM) in [11].

Molecule `c1ccc(Nc2nnc(CNc3ccc(N4CCOCC4)nc3)s2)cc1` [Compound 12] showed a melting point of 172 to 173 °C.

The record behind these values is publication PMC3685705, “Antimicrobial and antiurease activities of newly synthesized morpholine derivatives containing an azole nucleus” (Medicinal Chemistry Research, 2012).
